Experimental findings from article PMC10754035 (Cancer Research Communications, 2023) are described below.

For the assay, the system named is orthotopically-implanted PDX from patient G160. Description: Orthotopic PDX, patient G160. Type of assay: in vivo, NSG mice. As to the method:
Human pancreatic cancer specimens (patient G160) were initially implanted subcutaneously for tumor expansion as described above. Upon reaching an endpoint of 1.5 cm in maximum diameter, the tumors were harvested and divided into 3–4 mm pieces. Orthotopic implantation was then performed in NSG mice as described by us previously ([40]). […] Tumors were followed via abdominal ultrasound twice a week using the LOGIQ e NextGen Ultrasound machine (ANTECH Sound Imaging). At each timepoint, the mice were placed under appropriate anesthesia and the abdomen was saved thoroughly. Ultrasound was utilized to identify key structures including left kidney, stomach, liver, and bladder. Once these structures were noted, we identified the tumor. Where possible, the tumor and left kidney were encompassed in the same image. However, this could not be performed in all instances depending upon the axial location of the tumor. Scanning was performed using an 18 MHz linear probe and measurements were taken. […]
Tumor biopsies from pancreatic cancer patient G160 were prepared and implanted orthotopically into NSG mice as described in Methods. […] Tumors were monitored by ultrasound starting on day 40, but only became big enough to be measurable starting on day 54, and tumor measurements continued until day 97 after implantation. […] P values determined by Student’s t-test (*P < 0.05; **P < 0.01). […]

Compound `COC(=O)C1C2C3(C)C(=O)C=CC2(OC3=O)C2CCC3(CBr)CC12CC3=O` (centres unmarked) [KRB-456] had an average tumor volume (5 mpk i.p. daily for 30 days from day 20, measured by ultrasound on day 97, vehicle 504.7 ± 106.42) of 151.95 ± 23.27 mm^3. Further, the “inhibition of tumor growth” value (5 mpk i.p. daily for 30 days, day 97) is listed as 70%.
